In patent EP2647634A1, “Indole-pyrimidine derivatives and their therapeutic uses” (NOSCIRA, S.A., priority 2012, dated 2013):

Experiments:
[1] = molecular target: T1, Human recombinant CK1ε (Homo sapiens, UniProt P49674); experiment: CK1ε assay (luminescent detection of ADP); type: biochemical; details: 10 nM enzyme, 50 µM ATP, 50 µM substrate peptide, 40 min incubation
T1 construct: purchased Life Technologies
Protocol: (§1) The enzymatic activity of Cdk5 is determined with a commercial system, available from Promega (Madison, WI, USA) based on the luminescent detection of ADP, the byproduct of the kinase reaction. Human recombinant Cdk5/p35 heterodimer (purchased from Life Technologies, Carlsbad, CA, USA) is used as the enzyme source. At the end of the enzymatic reaction the remaining ATP is destroyed and afterwards the ADP produced during the kinase reaction is converted into ATP, which is further converted into light using a suitable luciferase. Therefore, the luminescent signal positively correlates with kinase activity. The assay is performed in 96-well conical bottom black plates, in a final volume of 12 µl with 10 nM enzyme concentration in 40 mM Tris-HCl pH 7.4, 20 mM MgCl2 and 0.01% bovine serum albumin using 10 µM ATP and 2 µM substrate. […] The assay is carried out in the presence of different concentrations of the tested compound, at a final 1% (v/v) DMSO concentration. After a 40 min incubation, at room temperature, 12 µl of a commercial "ADP Glo" solution (from Promega) is added to remove the remaining ATP and a subsequent 40 min incubation at room temperature is performed before adding 24 µl of a suitable "detection reagent" (also supplied by Promega) needed to carry out the transformation of ADP into ATP and its conversion into light by the luciferase enzyme included in the reagent. After a final 30 min incubation at room temperature luminescence is monitored in a suitable plate reader. […] For that purpose the data were fitted to a version of the classical 4-parameters isotherm equation using the nonlinear regression function of GraphPad™ Prism 5.0 (GraphPad Software Inc.).
The enzymatic activity of CK1ε is determined with the same commercial system described above based on the luminescent detection of ADP. Human recombinant CK1ε (purchased from Life Technologies) is used as the enzyme source. The assay is performed in 96-well conical bottom black plates, in a final volume of 12 µl with 10 nM enzyme concentration in 40 mM Tris-HCl pH 7.4, 20 mM MgCl2 and 0.01% bovine serum albumin using 50 µM ATP and 50 µM substrate peptide. The latter is a synthetic peptide provided by AnaSpec (Fremont, CA, USA) under the commercial name "CK1 peptide substrate" and it is based on the sequence of rabbit muscle glycogen synthase with Ser7 phosphorylated (the exact sequence of the peptide is KRRRAL(pS)VASLPGL, where (pS) denotes phospho-Ser). The assay is carried out in the presence of different concentrations of the tested compound at a final 1% (v/v) DMSO concentration.

[2] = molecular target: T2, Human recombinant Cdk5/p35 heterodimer (Homo sapiens, UniProt Q00535); experiment: Cdk5 assay (luminescent detection of ADP, ADP Glo); type: biochemical; details: 10 nM enzyme, 10 µM ATP, 2 µM histone H1, 40 min incubation
T2 construct: purchased Life Technologies
T2 sequence (Q00535 whole entry): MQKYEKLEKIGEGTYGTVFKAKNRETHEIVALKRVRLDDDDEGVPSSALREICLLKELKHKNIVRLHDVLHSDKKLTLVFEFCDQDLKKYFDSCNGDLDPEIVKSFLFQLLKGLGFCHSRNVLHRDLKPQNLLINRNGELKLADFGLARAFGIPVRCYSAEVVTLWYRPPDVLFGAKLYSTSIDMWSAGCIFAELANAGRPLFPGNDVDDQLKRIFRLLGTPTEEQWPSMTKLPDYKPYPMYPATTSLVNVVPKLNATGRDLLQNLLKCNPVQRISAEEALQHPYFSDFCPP
T2 sequence (Q15078 whole entry partner): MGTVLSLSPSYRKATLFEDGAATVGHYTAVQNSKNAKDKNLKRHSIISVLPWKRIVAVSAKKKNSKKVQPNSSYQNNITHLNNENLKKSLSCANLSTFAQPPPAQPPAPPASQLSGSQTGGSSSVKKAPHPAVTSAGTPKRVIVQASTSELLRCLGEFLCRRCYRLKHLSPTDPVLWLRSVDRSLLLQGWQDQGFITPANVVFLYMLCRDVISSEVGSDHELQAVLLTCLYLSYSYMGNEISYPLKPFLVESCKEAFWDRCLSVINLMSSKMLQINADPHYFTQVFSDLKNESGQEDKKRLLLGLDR
Protocol: as §1

[3] = molecular target: T3, Human recombinant GSK-3β (Homo sapiens, UniProt P49841); experiment: GSK-3β assay (luminescent detection of ADP); type: biochemical; details: 4 nM enzyme, 5 µM ATP, 15 µM substrate peptide, 40 min incubation
T3 construct: purchased Millipore
T3 sequence (P49841 whole entry): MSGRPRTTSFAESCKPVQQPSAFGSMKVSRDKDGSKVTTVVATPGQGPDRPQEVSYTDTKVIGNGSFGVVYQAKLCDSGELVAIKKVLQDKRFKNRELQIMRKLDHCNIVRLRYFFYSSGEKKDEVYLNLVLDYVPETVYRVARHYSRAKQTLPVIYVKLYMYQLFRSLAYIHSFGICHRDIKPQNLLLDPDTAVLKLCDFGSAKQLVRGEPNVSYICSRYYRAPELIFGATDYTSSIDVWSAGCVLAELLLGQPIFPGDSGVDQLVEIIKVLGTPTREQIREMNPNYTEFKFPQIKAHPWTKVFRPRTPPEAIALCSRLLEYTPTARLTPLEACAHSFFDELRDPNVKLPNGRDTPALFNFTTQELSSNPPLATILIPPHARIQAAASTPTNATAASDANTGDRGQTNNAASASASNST
Protocol: as §1
The enzymatic activity of GSK-3β is determined with the same commercial system described above based on the luminescent detection of ADP. Human recombinant GSK-3β (purchased from Millipore) is used as the enzyme source. […] The assay is carried out in the presence of different concentrations of the tested compound at a final 1% (v/v) DMSO concentration.

[4] = tested on: phosphorylation at the Ser-396 residue of Tau protein in human neuroblastoma SH-SY5Y cells; experiment: Cellular assay: phosphorylation at Ser-396 of Tau protein (ELISA); type: cell-based; details: 16 h incubation with compound, read-out: pSer396-Tau 16h pEC50 average (converted)
Protocol: The effect of the compounds in cells is determined by monitoring the level of phosphorylation at the Ser-396 residue of Tau protein in human neuroblastoma SH-SY5Y cells. Cells are grown in 96-well plates, 30,000 cells per well in a volume of 100 µl of 1:1 MEM:Ham's F12 medium including 10% (v/v) fetal bovine serum, 100 U/ml penicillin, 100 µg/ml streptomycin and 1% (v/v) 100-fold concentrated commercial stock of non-essential aminoacids (Gibco, Carlsbad, CA, USA), and incubated at 37°C during 24 h. Then, the corresponding amount of test compound is added to the wells to reach the desired concentration in 1% (v/v) DMSO. The system is incubated at 37°C during 16 h and afterwards cells are harvested, washed with phosphate buffer saline and incubated during 30 min on ice with 120 µl per well of "lysis buffer" (10 mM Tris-HCl pH 7.4, 100 mM NaCl, 1 mM EDTA, 2 mM sodium orthovanadate, 1% (v/v) Triton X-100, 10% (v/v) glycerol, 0.1% (w/v) sodium dodecyl sulfate, 0.5 % (w/v) sodium deoxycholate, 4% (v/v) 25-fold concentrated commercial stock of protease inhibitors (Roche, Basel, Switzerland) and 1 mM phenylmethylsulfonyl fluoride). 60 µl of this mixture is then placed in an empty 96-well plate and the levels of Ser-396 phosphorylation are determined using a commercial ELISA kit (Biosource, Carlsbad, CA, USA) following manufacturer's instructions. The levels of phosphrylation are expressed as percentage values after normalizing them to those in untreated cells and those values are used to calculate the pEC50s as described above.

T1 sequence (P49674 whole entry): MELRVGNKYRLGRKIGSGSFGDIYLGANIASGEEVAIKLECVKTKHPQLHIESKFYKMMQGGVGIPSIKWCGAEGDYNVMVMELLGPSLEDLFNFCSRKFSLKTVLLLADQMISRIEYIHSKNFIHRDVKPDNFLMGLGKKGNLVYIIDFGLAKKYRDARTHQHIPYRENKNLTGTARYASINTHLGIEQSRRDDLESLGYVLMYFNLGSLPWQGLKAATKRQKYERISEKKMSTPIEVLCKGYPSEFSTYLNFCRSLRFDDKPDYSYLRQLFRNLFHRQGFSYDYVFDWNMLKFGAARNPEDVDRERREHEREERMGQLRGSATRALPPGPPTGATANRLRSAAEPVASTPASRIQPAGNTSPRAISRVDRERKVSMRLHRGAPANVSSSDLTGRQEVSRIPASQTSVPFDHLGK

Row | EC50 ([1]; read-out: CK1 inhibition pEC50 average (converted)) [nM] | EC50 ([2]; read-out: Cdk5 inhibition pEC50 average (converted)) [nM] | EC50 ([3]; read-out: GSK3β inhibition pEC50 average (converted)) [nM] | Compound | CK1 inhibition pEC50 average [1] | Cdk5 inhibition pEC50 average [2] | GSK3β inhibition pEC50 average [3] | EC50 [4] [nM]
1 | – | – | – | CS(=O)(=O)c1ccc2c(-c3ccnc(N)n3)c(O)[nH]c2c1 [Compound 2, 3-(2-Amino-4-pyrimidinyl) -6-methanesulfonyl-2-oxoindole] | 5.4 | 6.7 | 5.3 | –
2 | – | – | – | Nc1nccc(-c2c(O)[nH]c3ccc(F)cc23)n1 [Compound 4, 3-(2-Amino-4-pyrimidinyl) -5-Fluoro-2-oxoindole] | 6.5 | 7.5 | 7.5 | 1260
3 | 3160 | 501 | 398 | Cc1cc(-c2c(O)[nH]c3ccccc23)nc(N)n1 [Comparative example, reference compound] | – | – | – | –
4 | – | – | – | Nc1nccc(-c2c(O)[nH]c3ccc(F)c(F)c23)n1 [Compound 8, 3-(2-Amino-4-pyrimidinyl)-4,5-difluoro-2-oxoindol] | < 4 | 7.6 | 7.6 | –
5 | – | – | – | Nc1nccc(-c2c(O)[nH]c3ccc(Cl)cc23)n1 [Compound 5, 3-(2-Amino-4-pyrimidinyl) -5-Chloro-2-oxoindole] | 6.7 | 8.8 | 7.9 | 316
6 | – | – | – | Nc1nccc(-c2c(O)[nH]c3ccc([N+](=O)[O-])cc23)n1 [Compound 6, 3-(2-Amino-4-pyrimidinyl) -5-Nitro-2-oxoindole] | 4.7 | 6.9 | 6.7 | 10000
7 | – | – | – | COC(=O)c1ccc2c(-c3ccnc(N)n3)c(O)[nH]c2c1 [Compound 7, 3-(2-Amino-4-pyrimidinyl) -2-oxoindole-6-carboxylic acid methyl ester] | 5.9 | 6.8 | 6.6 | –
8 | – | – | – | Nc1nccc(-c2c(O)[nH]c3ccc(Br)cc23)n1 [Compound 3, 3-(2-Amino-4-pyrimidinyl)-5-Bromo-2-oxoindole] | 6.1 | 8.3 | 7.8 | –
9 | – | – | – | Nc1nccc(-c2c(O)[nH]c3ccccc23)n1 [Compound 1, 3-(2-Amino-4-pyrimidinyl)-2-oxoindole] | 6.1 | 8.2 | 6.9 | –
